Measurements as given in the supplement of paper PMC10307832.

How the values were obtained:
Assay in all cases: relative viability (nuclei count vs DMSO), 5 days (fraction); higher = more cells survive
[1] = compound: C1CC(C1)(C(=O)O)C(=O)O.[NH2-].[NH2-].[Pt+2] [Carboplatin] + C[C@]1(O)C[C@@H](c2nc(-c3ccc4ccc(-c5ccccc5)nc4c3)c3c(N)nccn32)C1 [Linsitinib] (partner 1 µM)
Summary of the method: (§1)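 For relative viability, nuclei counts in treated wells were divided by those in vehicle wells. Lung cancer cell lines had been pin-tool dosed in 1536-well plates the day after seeding and cultured for 5 days, then fixed and stained in one step (final 0.05% Triton X-100, 1% formaldehyde, 1 ug/ml Hoechst) and imaged at 4×. Doses were one drug alone or a fixed anchor-drug dose plus five library-drug doses (not always all listed) in √10 steps, and values are duplicate-plate medians.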

[2] = compound: CC[C@H](C)N1C=C(C2=C(C=C(C=C21)C3=CN=C(C=C3)N4CCNCC4)C(=O)NCC5=C(C=C(NC5=O)C)C)C [GSK126] + CC1(C)CCC(c2ccc(Cl)cc2)=C(CN2CCN(c3ccc(C(=O)NS(=O)(=O)c4ccc(N[C@H](CCN5CCOCC5)CSc5ccccc5)c(S(=O)(=O)C(F)(F)F)c4)cc3)CC2)C1 [Navitoclax] (partner 0.5 µM)
Summary of the method: as §1

[3] = compound: NS(=O)(=O)OC[C@@H]1C[C@@H](n2ccc3c(N[C@H]4CCc5ccccc54)ncnc32)C[C@@H]1O [MLN4924] + COc1cc2c(Oc3ccc(NC(=O)C4(C(=O)Nc5ccc(F)cc5)CC4)cc3F)ccnc2cc1OCCCN1CCOCC1 [Foretinib] (partner 0.25 µM)
Summary of the method: as §1

[4] = compound: NS(=O)(=O)OC[C@@H]1C[C@@H](n2ccc3c(N[C@H]4CCc5ccccc54)ncnc32)C[C@@H]1O [MLN4924] + Cc1nc(NC(=O)N2CCC[C@H]2C(N)=O)sc1-c1ccnc(C(C)(C)C(F)(F)F)c1 [Alpelisib] (partner 2 µM)
Summary of the method: as §1

Cell Line | relative viability ([1]; first compound 0.08 µM) | relative viability ([1]; first compound 0.253 µM) | relative viability ([1]; first compound 0.8 µM) | relative viability ([1]; first compound 2.53 µM) | relative viability ([1]; first compound 8 µM) | relative viability ([2]; first compound 0.08 µM) | relative viability ([2]; first compound 0.253 µM) | relative viability ([2]; first compound 0.8 µM) | relative viability ([2]; first compound 2.53 µM) | relative viability ([2]; first compound 8 µM) | relative viability ([3]; first compound 0.04 µM) | relative viability ([3]; first compound 0.1265 µM) | relative viability ([3]; first compound 0.4 µM) | relative viability ([3]; first compound 1.265 µM) | relative viability ([3]; first compound 4 µM) | relative viability ([4]; first compound 0.04 µM) | relative viability ([4]; first compound 0.1265 µM) | relative viability ([4]; first compound 0.4 µM) | relative viability ([4]; first compound 1.265 µM) | relative viability ([4]; first compound 4 µM)
A549 | 0.715 | 0.717 | 0.666 | 0.522 | 0.446 | 1.37 | 1.28 | 1.23 | 1.24 | 1.13 | 0.972 | 0.8 | 0.508 | 0.0828 | 0.0301 | 0.657 | 0.748 | 0.61 | 0.05 | 0.05
NCI-H358 | 0.826 | 0.806 | 0.796 | 0.772 | 0.751 |  |  |  |  |  | 0.781 | 0.694 | 0.397 | 0.0949 | 0.094 | 1.01 | 0.899 | 0.34 | 0.189 | 0.162
NCI-H2342 |  |  |  |  |  |  |  |  |  |  | 1.17 | 1.06 | 1.24 | 0.76 | 0.472 |  |  |  |  | 
NCI-H2087 | 1.09 | 0.857 | 0.782 | 0.871 | 0.585 | 0.992 | 0.917 | 1.14 | 1.02 | 1.14 | 1.13 | 0.669 | 0.419 | 0.107 | 0.0968 | 1.13 | 0.815 | 0.381 | 0.178 | 0.136
NCI-H596 | 1.15 | 1.09 | 0.904 | 0.809 | 0.771 | 0.92 | 0.85 | 0.988 | 1.1 | 0.961 | 0.847 | 1.04 |  | 0.65 | 0.58 | 0.468 | 0.61 | 0.426 | 0.664 | 0.52
ChaGo-K-1 |  |  |  |  |  | 1.19 | 0.925 | 1.03 | 1.27 | 1.09 | 0.785 | 0.503 | 0.336 | 0.244 | 0.22 |  |  |  |  | 
SW 1573 | 0.757 | 0.621 | 0.642 | 0.738 | 0.557 | 0.894 | 0.955 | 1.2 | 1.06 | 1.07 | 0.967 | 0.982 | 0.875 | 0.156 | 0.0921 | 1.01 | 0.974 | 0.957 | 0.155 | 0.0628
LCLC-97TM1 | 0.177 |  | 0.17 | 0.195 | 0.192 | 0.587 |  | 0.379 | 0.525 | 0.798 | 0.97 | 0.424 | 0.69 | 0.127 | 0.123 | 0.255 | 0.208 | 0.129 | 0.114 | 0.119
HCC-366 | 0.848 | 0.595 | 0.48 | 0.437 | 0.265 | 1.17 | 1.02 | 1.09 | 1.12 | 1.05 | 0.907 | 0.975 | 0.925 | 0.447 | 0.0537 | 0.58 | 0.733 | 0.877 | 0.369 | 0.027
HARA | 0.94 | 0.985 | 0.703 | 0.853 | 0.904 | 1.18 | 1.11 | 1.1 | 1.15 | 1.14 | 0.838 | 0.537 | 0.83 | 0.0708 | 0.0645 | 0.716 | 0.576 | 0.249 | 0.0868 | 0.0836
NCI-H1915 | 1.07 | 1.11 | 1.04 | 1.01 | 0.723 | 0.83 | 0.789 | 0.786 | 0.789 | 0.786 | 1.07 | 0.929 | 0.906 | 0.314 | 0.232 | 1.03 | 0.865 | 0.892 | 0.216 | 0.17
NCI-H1650 |  |  |  |  |  | 1.33 | 1.19 | 1.1 | 1.12 | 1.06 | 0.92 | 0.951 | 0.325 | 0.217 | 0.19 |  |  |  |  | 
NCI-H650 | 1.15 | 0.859 | 0.982 | 0.848 | 0.503 |  |  |  |  |  | 0.863 | 0.499 | 0.341 | 0.197 | 0.191 | 1.06 | 0.513 | 0.339 | 0.204 | 0.232
NCI-H661 | 0.555 | 0.705 | 0.529 | 0.44 | 0.541 |  |  |  |  |  | 0.902 | 0.776 | 0.67 | 0.393 | 0.399 | 0.664 | 0.887 | 0.502 | 0.231 | 0.351
NCI-H2170 |  |  |  |  |  | 0.623 | 0.607 | 0.575 | 0.632 | 0.606 | 1.02 | 0.277 | 0.28 | 0.199 | 0.227 | 0.906 | 0.555 | 0.457 | 0.169 | 0.171
SW 900 |  |  |  |  |  |  |  |  |  |  | 0.762 | 0.682 | 0.315 | 0.179 | 0.107 |  |  |  |  | 
NCI-H1792 | 0.61 | 0.518 | 0.528 | 0.393 | 0.503 | 0.733 | 0.644 | 0.655 | 0.664 | 0.658 |  |  |  |  |  | 0.685 | 0.758 | 0.944 | 0.441 | 0.21
LCLC-103H | 1.15 | 1.1 | 1.05 | 1.21 | 1.04 |  |  |  |  |  | 0.85 | 0.896 | 0.861 | 0.175 | 0.15 | 1.14 | 1.18 | 1.12 | 0.234 | 0.342
NCI-H1563 | 1.32 | 1.13 | 1.22 | 1.26 | 1.04 |  |  |  |  |  | 1.16 | 1.21 | 0.744 | 0.535 | 0.55 | 1.36 | 1.31 | 0.898 | 0.564 | 0.566
ABC-1 | 0.633 | 0.939 | 0.779 | 0.864 | 0.703 |  |  |  |  |  | 1.07 | 1.07 | 0.301 | 0.189 | 0.248 | 1.18 | 0.95 | 0.352 | 0.264 | 0.262
NCI-H1623 |  |  |  |  |  |  |  |  |  |  | 0.704 | 0.536 | 0.468 | 0.289 | 0.294 |  |  |  |  | 
